Data: article PMC3190057 (Food and chemical toxicology : an international journal …, 2011)
Several values for one entry are separate records, joined by “and”; a condition that tells them apart may be missing. Equal entries are not always repeated.

Experiments:
P-gp [1] = test: Immunofluorescence staining and imaging of membrane P-gp; format: cell-based, human; details: LS-180 cells, 25 μM, 48 h, mean ± SD (n=4)
P-gp [2] = test: In vitro induction of P-gp expression, Western blotting; format: cell-based, human; details: LS-180 cells, 25 μM, 48 h, Western blot densitometry, P-gp/β-actin
P-gp [3] = test: P-gp functional activity, rhodamine 123 uptake with or without 100 μM verapamil; details: LS-180 cells; for increase in P-gp activity: 48 h; for Emax (fold ↑ in P-gp activity): Hill equation fit
P-gp [4] = test: in vitro; details: human
[5] = human subjects, oral administration, cited from earlier work
LS-180 cells = test: Toxicity to LS-180 cells during the induction treatment; format: cell-based, human

| SMILES | fold-increase in membrane P-gp expression compared to the control (P-gp [1]) [fold] | fold increase in the expression of P-gp protein compared to control (P-gp [2]) | increase in P-gp activity (P-gp [3]; 25 μM) [%] | Emax (fold ↑ in P-gp activity) (P-gp [3]) [fold] | EC50 at 48 h (P-gp [4]) [µM] | decrease in digoxin area under the plasma curve (AUC) ([5]; ref Greiner et al., 1999) [%] | decrease in risperidone area under the plasma curve (AUC) ([5]; ref Kim et al., 2008) [%] | increase in P-gp activity (P-gp [3]; 5 μM) [%] | concentration toxic to the cells (LS-180 cells) [µM] | increase in P-gp activity (P-gp [3]; 10 μM) [%] | EC50 at 48 h (P-gp [4]; LS-180 cells, probe rhodamine 123 (1 μg/mL), with verapamil 100 μM) [µM] |
| --- | --- | --- | --- | --- | --- | --- | --- | --- | --- | --- | --- |
| C[C@H]1[C@H](C)CC[C@]2(C(=O)O)CC[C@]3(C)C(=CC[C@@H]4[C@@]5(C)C[C@@H](O)[C@H](O)[C@@](C)(CO)[C@@H]5CC[C@]43C)[C@H]12 [asiatic acid, Asiatic acid] | 2.5 ± 0.95 | 2.3-3.0 fold and 2.6 fold | > 45 | 1.5 | 11.3 |  |  |  |  |  |  |
| C/C=C(/C=O)[C@@H](CC=O)CC(=O)OCCc1ccc(O)cc1 [oleocanthal, (-)-Oleocanthal] | 9.3 ± 0.37 | 2.3-3.0 fold and 2.3 fold |  | 4.5 | 14 |  |  |  |  |  |  |
| CO[C@H]1/C=C/O[C@@]2(C)Oc3c(C)c(O)c4c(O)c(c(/C=N/N5CCN(C)CC5)c(O)c4c3C2=O)NC(=O)/C(C)=C\C=C\[C@H](C)[C@H](O)[C@@H](C)[C@@H](O)[C@@H](C)[C@H](OC(C)=O)[C@@H]1C [rifampicin, Rifampicin, reference compound] |  | 5 fold | 230 | 4.4 | 26.8 | 30 | 51 | 180 |  |  |  |
| CC(C)=CCC/C(C)=C/CC/C(C)=C/CC[C@]1(C)CCc2cc(O)c(C)c(C)c2O1 [γ-tocotrienol, γ-Tocotrienol] | 4.6 ± 0.39 | 2.3-3.0 fold and 2.5 fold |  | 1.7 |  |  |  |  | > 25 | > 45 | 5.9 |
